In ChEMBL document CHEMBL1201862, “PubChem BioAssay data set” (2004):
The source made the active and inactive calls.

Key:
cells [1] = assay type: functional, cell-based
cells [2] = assay type: functional, cell-based; remark: listed apart in the source
[3] = target: T1, Short transient receptor potential channel 4 (Mus musculus, UniProt Q9QUQ5); assay: mouse TRPC4 channel activators, dose response, cell-based, HEK293 TRPC4/mu-opioid, Fluo-4 calcium (AID 434937); assay type: functional
T1 sequence (Q9QUQ5 whole entry): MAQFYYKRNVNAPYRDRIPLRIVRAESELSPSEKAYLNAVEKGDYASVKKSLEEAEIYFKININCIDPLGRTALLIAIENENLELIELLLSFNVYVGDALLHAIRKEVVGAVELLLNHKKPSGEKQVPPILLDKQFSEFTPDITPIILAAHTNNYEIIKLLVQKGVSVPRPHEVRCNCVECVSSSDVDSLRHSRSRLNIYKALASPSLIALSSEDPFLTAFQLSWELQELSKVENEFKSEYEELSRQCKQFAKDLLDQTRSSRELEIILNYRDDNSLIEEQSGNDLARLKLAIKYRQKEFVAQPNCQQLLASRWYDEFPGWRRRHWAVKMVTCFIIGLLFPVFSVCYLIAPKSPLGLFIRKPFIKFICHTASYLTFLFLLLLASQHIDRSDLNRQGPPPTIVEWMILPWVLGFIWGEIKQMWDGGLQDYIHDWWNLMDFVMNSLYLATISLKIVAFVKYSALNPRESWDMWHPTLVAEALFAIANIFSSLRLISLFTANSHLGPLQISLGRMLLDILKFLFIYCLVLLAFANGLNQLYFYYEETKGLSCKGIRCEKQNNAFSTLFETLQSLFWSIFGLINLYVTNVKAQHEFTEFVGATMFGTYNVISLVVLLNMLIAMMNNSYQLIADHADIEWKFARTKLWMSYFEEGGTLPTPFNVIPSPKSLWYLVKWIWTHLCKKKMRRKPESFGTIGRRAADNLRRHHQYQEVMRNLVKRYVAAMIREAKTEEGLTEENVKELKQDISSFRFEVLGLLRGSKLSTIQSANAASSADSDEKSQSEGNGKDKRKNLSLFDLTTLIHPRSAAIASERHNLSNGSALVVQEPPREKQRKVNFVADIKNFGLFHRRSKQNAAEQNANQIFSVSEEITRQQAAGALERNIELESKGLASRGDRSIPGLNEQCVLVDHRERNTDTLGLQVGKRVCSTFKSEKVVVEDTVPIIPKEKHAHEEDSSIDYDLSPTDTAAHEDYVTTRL

[4] = insulin promoter down-regulators in MIN6 cells, imaging, high-content screening, mouse beta cells (AID 1628); assay type: functional
[5] = cytotoxicity in MIN6 insulinoma cells, dose response, cytotoxicity control, cell-based, mouse insulinoma (AID 2122); assay type: functional;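 further: confirmatory high-throughput counterscreen run to flag cytotoxic compounds; mouse MIN-6 beta cells carrying an insulin promoter eGFP reporter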
[6] = target: T2, Lysine-specific demethylase 4C (Homo sapiens, UniProt Q9H3R0); assay: GASC-1 (JMJD2C) histone demethylase inhibitors, dose response, biochemical, DELFIA europium, cherry-picked samples (AID 488835); assay type: functional
T2 sequence (Q9H3R0 whole entry): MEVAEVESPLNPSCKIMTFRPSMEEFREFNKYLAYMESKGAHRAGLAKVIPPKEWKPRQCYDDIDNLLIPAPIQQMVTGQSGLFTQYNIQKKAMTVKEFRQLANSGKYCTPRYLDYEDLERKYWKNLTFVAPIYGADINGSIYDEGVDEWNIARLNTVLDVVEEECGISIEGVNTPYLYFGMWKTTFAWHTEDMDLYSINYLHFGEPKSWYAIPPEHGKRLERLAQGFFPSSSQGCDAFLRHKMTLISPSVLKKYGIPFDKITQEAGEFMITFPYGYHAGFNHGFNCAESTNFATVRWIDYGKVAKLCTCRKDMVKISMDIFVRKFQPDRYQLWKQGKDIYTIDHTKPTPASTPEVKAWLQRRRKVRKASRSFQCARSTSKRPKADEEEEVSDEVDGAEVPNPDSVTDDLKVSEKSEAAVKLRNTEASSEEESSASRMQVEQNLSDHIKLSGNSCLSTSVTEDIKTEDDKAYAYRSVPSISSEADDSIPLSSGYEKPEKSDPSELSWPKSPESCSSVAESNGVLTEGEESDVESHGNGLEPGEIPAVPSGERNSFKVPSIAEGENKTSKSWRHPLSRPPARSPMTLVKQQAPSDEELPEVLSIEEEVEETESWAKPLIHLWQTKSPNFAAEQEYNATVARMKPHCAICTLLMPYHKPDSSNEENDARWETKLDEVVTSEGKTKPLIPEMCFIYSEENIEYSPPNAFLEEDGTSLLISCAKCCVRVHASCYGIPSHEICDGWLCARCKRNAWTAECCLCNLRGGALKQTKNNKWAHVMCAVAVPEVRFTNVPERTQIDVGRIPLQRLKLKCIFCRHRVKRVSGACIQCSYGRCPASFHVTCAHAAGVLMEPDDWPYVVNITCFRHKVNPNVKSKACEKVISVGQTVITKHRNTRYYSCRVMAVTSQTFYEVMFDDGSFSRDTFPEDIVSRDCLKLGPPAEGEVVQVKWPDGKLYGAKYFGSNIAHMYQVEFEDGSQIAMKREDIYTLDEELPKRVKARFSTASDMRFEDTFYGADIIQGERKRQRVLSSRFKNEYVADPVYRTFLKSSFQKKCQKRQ

[7] = Counterscreen for IDE inhibitors: Luminescence-based cell-based high throughput dose response assay to identify compounds that are cytotoxic to HEK cells. [Related pubchem assays: 434962 (Primary screen (IDE inhibitors in singlicate)), 449730 (Counterscreen (Cytotoxicity in triplicate)), 435028 (Confirmation (IDE inhibitors in triplicate)) …; assay type: functional; settings: HEK293
Insulin-degrading enzyme = target: T3, Insulin-degrading enzyme (Homo sapiens, UniProt P14735); assay: Dose Response: Fluorescence polarization-based cell-based high throughput dose response assay for inhibitors of insulin-degrading enzyme (IDE). [Related pubchem assays: 434962 (Primary screen (IDE inhibitors in singlicate)), 449730 (Counterscreen (Cytotoxicity in triplicate)), 435028 (Confirmation (IDE inhibitors in triplicate)), 434984 (Summary …; assay type: functional
T3 sequence (P14735 whole entry): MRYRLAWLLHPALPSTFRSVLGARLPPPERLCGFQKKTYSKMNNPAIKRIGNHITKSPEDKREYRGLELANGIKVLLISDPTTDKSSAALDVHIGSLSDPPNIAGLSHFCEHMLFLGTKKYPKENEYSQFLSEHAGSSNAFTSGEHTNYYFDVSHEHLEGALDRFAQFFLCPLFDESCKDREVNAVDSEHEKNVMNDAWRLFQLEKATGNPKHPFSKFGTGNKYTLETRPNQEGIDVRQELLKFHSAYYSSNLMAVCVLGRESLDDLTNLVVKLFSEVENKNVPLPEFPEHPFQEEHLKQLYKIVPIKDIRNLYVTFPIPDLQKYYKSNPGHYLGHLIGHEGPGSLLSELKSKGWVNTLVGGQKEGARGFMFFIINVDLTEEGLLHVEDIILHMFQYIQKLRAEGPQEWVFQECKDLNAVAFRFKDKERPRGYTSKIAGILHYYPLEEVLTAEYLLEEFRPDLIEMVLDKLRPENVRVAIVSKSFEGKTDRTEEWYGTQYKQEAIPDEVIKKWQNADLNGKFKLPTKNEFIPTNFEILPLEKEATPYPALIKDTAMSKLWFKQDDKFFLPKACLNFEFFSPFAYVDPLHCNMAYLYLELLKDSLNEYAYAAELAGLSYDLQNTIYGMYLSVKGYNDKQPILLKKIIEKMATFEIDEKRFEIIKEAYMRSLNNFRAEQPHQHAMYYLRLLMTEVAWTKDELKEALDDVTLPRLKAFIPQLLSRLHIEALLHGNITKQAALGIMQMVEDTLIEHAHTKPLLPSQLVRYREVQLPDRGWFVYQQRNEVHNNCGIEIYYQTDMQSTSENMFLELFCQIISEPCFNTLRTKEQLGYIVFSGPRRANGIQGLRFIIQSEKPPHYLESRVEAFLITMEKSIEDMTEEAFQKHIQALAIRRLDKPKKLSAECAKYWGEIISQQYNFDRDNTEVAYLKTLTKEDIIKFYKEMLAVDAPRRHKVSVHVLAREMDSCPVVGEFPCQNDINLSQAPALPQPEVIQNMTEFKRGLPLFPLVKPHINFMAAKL

[8] = target: Intestinal-type alkaline phosphatase (Homo sapiens, UniProt P09923); assay: human intestinal alkaline phosphatase activators, dose response, biochemical, luminescence, uHTS hits (AID 463120); assay type: functional
Chain of Intestinal-type alkaline phosphatase (P09923 whole entry): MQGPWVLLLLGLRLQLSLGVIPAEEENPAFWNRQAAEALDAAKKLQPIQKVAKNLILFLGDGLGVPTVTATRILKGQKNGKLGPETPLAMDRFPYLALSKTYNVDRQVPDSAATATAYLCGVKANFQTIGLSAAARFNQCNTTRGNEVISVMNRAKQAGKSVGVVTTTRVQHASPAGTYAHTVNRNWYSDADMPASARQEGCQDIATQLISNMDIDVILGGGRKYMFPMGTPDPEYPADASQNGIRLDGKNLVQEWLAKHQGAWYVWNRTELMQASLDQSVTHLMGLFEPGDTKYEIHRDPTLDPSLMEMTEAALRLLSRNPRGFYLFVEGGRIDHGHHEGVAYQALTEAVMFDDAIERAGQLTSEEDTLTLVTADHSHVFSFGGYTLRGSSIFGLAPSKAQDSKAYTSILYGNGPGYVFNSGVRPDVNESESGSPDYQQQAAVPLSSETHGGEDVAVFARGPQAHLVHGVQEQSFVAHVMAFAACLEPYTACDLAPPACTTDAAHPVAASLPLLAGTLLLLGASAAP

In the case of `O=C(C1CCCN(Cc2ccccc2F)C1)N1CCc2ccccc2C1` (stereo not given), the EC50 (cells [1]) is reported as > 350 µM (not active), the EC50 (cells [2]) is reported as > 350 µM (not active) and the EC50 [3] is reported as 0.299 µM (active).
In the case of `CC(C)C(=O)Nc1cccc(C(=O)N2CCCCC2C)c1` (stereo not given), the IC50 [4] is reported as 2.43 µM (active) and the IC50 [5] is reported as 1.99 µM (active).
For `Cc1cccc(N2C(=O)NC(=O)/C(=C\c3cnc(-c4ccccc4)nc3)C2=O)c1`, the AC50 [6] was 15.2 µM (active).
With `COc1cc(/C=C2\SC(=S)N(NC(C)=O)C2=O)ccc1OC(=O)c1ccco1` the IC50 [7] was > 55.7 µM (not active) and the IC50 (Insulin-degrading enzyme) was 5.78 µM (active).
For `CNCC(=O)N1CCN(c2ncc(C(F)(F)F)cc2Cl)CC1`, the EC50 [3] was 0.105 µM (active).
For `Cc1ccc(O)c(N/C=C/C(=O)c2ccc(F)cc2)c1`, the EC50 [8] was > 100 µM (inactive).
